From PubChem BioAssay AID212 (DTP/NCI, 2004)
Several values for one entry are separate records, joined by “and”; a condition that tells them apart may be missing. Identical values can stand only once. Inconclusive results are not listed. *1 amine or outer side, *2 acyl side, *3 side chain or, on linkers, in order; H or OH if unused. Where a SMILES comes first, the peptide text is derived from it. Bridges are numbered along the chain shown (N, C = ends). Roman numbers before positions name the chains, in order. [ ]: non-standard residue; d: D form. Actinocin(9to1) = Cc1c2oc3c(C)ccc(C(=O)[*:1])c3nc-2c(C(=O)[*:2])c(N)c1=O; aThr = C[C@H](O)[C@H](N)C(=O)O; NMeV = CN[C@H](C(=O)O)C(C)C; Sar = CNCC(=O)O

System: BDF1 mice, colon carcinoma 38 sc, T/C %
Assay: NCI In Vivo Anticancer Drug Screen. Data for tumor model Colon Carcinoma 38 (subcutaneous) in B6D2F1 (BDF1) mice
Conditions: endpoint: median tumor weight (est.), schedule: Q07DX002 (ip), higher = larger tumour
Procedure, shortened: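 Compound antitumor activity was assessed in mice carrying transplantable tumors. Survival or tumor size was recorded, and each value is the treated-group measurement divided by that of the vehicle-treated control group.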

[1] = dose: 25.0 mg/kg/injection, vehicle: saline with Tween-80
[2] = dose: 50.0 mg/kg/injection, vehicle: saline with Tween-80
[3] = dose: 100.0 mg/kg/injection, vehicle: saline with Tween-80
[4] = dose: 200.0 mg/kg/injection, vehicle: saline with Tween-80
[5] = dose: 400.0 mg/kg/injection, vehicle: saline with Tween-80

NCCCNCCSP(=O)(O)O
T/C (dose: 6.25 mg/kg/injection, vehicle: saline): 101 % of control | T/C (dose: 12.5 mg/kg/injection, vehicle: saline): 103 % of control | T/C [1]: 83 % of control | T/C (dose: 25.0 mg/kg/injection, vehicle: saline): 81 % of control | T/C [2]: 73 % of control | T/C (dose: 50.0 mg/kg/injection, vehicle: saline): 109 % of control | T/C [3]: 91 % of control | T/C (dose: 100.0 mg/kg/injection, vehicle: saline): 72 % of control | T/C [4]: 82 % of control | T/C (dose: 200.0 mg/kg/injection, vehicle: saline): 76 % of control | T/C [5]: 82 % of control

Cc1c2oc3c(C)ccc(C(=O)N[C@@H]4C(=O)N[C@H](C(C)C)C(=O)N5CCC[C@H]5C(=O)N(C)CC(=O)N(C)[C@@H](C(C)C)C(=O)O[C@H]4C)c3nc-2c(C(=O)N[C@@H]2C(=O)N[C@H](C(C)C)C(=O)N3CCC[C@H]3C(=O)N(C)CC(=O)N(C)[C@@H](C(C)C)C(=O)O[C@H]2C)c(N)c1=O (I: [aThr][dV]P[Sar][NMeV] / II: [aThr][dV]P[Sar][NMeV]; ester I:1-I:C, II:1-II:C; linker I:N-II:N via Actinocin(9to1))
T/C (dose: 100.0 micrograms/kg/injection, vehicle: saline + alcohol): 104 % of control | T/C (dose: 200.0 micrograms/kg/injection, vehicle: saline + alcohol): 77 % of control | T/C (dose: 400.0 micrograms/kg/injection, vehicle: saline + alcohol): 19 % of control

NCCc1ccc(O)c(O)c1
T/C (dose: 112.5 mg/kg/injection, vehicle: Klucel (hydroxypropylcellulose) (HPC)): 122 % of control | T/C (dose: 225.0 mg/kg/injection, vehicle: Klucel (hydroxypropylcellulose) (HPC)): 109 % of control and 87 % of control | T/C (dose: 450.0 mg/kg/injection, vehicle: Klucel (hydroxypropylcellulose) (HPC)): 113 % of control and 103 % of control | T/C (dose: 900.0 mg/kg/injection, vehicle: Klucel (hydroxypropylcellulose) (HPC)): 95 % of control and 97 % of control

Cn1ccc(=Nc2ccc(NC(=O)c3ccc(N=c4ccn(C)c5ccc([N+](=O)[O-])cc45)cc3[N+](=O)[O-])cc2)cc1
T/C [1]: 99 % of control | T/C [2]: 60 % of control | T/C [3]: 105 % of control | T/C [4]: 90 % of control | T/C [5]: 29 % of control | T/C (dose: 800.0 mg/kg/injection, vehicle: saline with Tween-80): 67 % of control

CN1C(=O)NC(c2ccc(Cl)cc2)(c2ccc(Cl)cc2)C1=O
T/C (dose: 12.5 mg/kg/injection, vehicle: distilled water + Tween-80): 95 % of control | T/C (dose: 25.0 mg/kg/injection, vehicle: distilled water + Tween-80): 105 % of control | T/C (dose: 50.0 mg/kg/injection, vehicle: distilled water + Tween-80): 51 % of control | T/C (dose: 100.0 mg/kg/injection, vehicle: distilled water + Tween-80): 97 % of control | T/C (dose: 200.0 mg/kg/injection, vehicle: distilled water + Tween-80): 52 % of control | T/C (dose: 400.0 mg/kg/injection, vehicle: distilled water + Tween-80): 58 % of control

CC(C)CCCCCCCCCCCCC(=O)NCC(=O)NC1C(O)C(O)C(Nc2ncnc3nc[nH]c23)OC1C(O)CO (stereo not drawn)
T/C (dose: 0.13 mg/kg/injection, vehicle: saline): 110 % of control | T/C (dose: 0.25 mg/kg/injection, vehicle: saline): 114 % of control | T/C (dose: 1.0 mg/kg/injection, vehicle: saline): 71 % of control | T/C (dose: 1.0 mg/kg/injection, vehicle: suspension in saline): 114 % of control | T/C (dose: 2.0 mg/kg/injection, vehicle: saline): 87 % of control | T/C (dose: 2.0 mg/kg/injection, vehicle: suspension in saline): 113 % of control | T/C (dose: 4.0 mg/kg/injection, vehicle: saline): 76 % of control | T/C (dose: 4.0 mg/kg/injection, vehicle: suspension in saline): 42 % of control
